Where “and” joins values, the source holds several entries; their conditions need not be identical. Equal values may be shown once.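 Grown in 96-well plates, cells were treated for 48 hours with each compound at five concentrations. Insufficient inhibition: endpoint recorded as highest concentration tested. GI50 is the concentration that inhibits growth by half. TGI: concentration producing complete growth inhibition.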 Where a SMILES comes first, the peptide text is derived from it.
What was measured:
Assay in all cases: NCI-60 cell line screen, 48 h
SR leukemia = tested on: SR leukemia
OVCAR-8 ovarian = tested on: OVCAR-8 ovarian
HOP-62 NSCLC = tested on: HOP-62 NSCLC
UACC-257 melanoma = tested on: UACC-257 melanoma
PC-3 prostate = tested on: PC-3 prostate
A498 renal = tested on: A498 renal
M14 melanoma = tested on: M14 melanoma
MDA-MB-435 = tested on: MDA-MB-435
NCI-H23 lung = tested on: NCI-H23 lung
MALME-3M melanoma = tested on: MALME-3M melanoma

| SMILES | TGI (SR leukemia) | TGI (OVCAR-8 ovarian) | TGI (HOP-62 NSCLC) | TGI (UACC-257 melanoma) | TGI (PC-3 prostate) | TGI (A498 renal) | TGI (M14 melanoma) | TGI (MDA-MB-435) | TGI (NCI-H23 lung) | TGI (MALME-3M melanoma) | GI50 (SR leukemia) | GI50 (PC-3 prostate) | GI50 (M14 melanoma) | GI50 (MDA-MB-435) |
| --- | --- | --- | --- | --- | --- | --- | --- | --- | --- | --- | --- | --- | --- | --- |
| CCN1C(=O)CS/C1=N\NC(=O)CSc1nc2ccccc2c(=O)n1CC | > 100 µM | > 100 µM | > 100 µM | > 100 µM | > 100 µM | > 100 µM | > 100 µM | > 100 µM | > 100 µM | > 100 µM |  |  |  |  |
| S=C(Nc1cccc(C2(N3CCCCC3)CCCCC2)c1)Nc1cccc(C2(N3CCCCC3)CCCCC2)c1 | 31.6 µM | 59.2 µM | > 100 µM | 33.4 µM | > 100 µM | 35.1 µM | 35.5 µM | 30.6 µM | > 100 µM | 36.1 µM |  |  |  |  |
| CC(=O)NC(CO)C(=O)NC(Cc1ccc(O)cc1)C(=O)NCC(N)=O (stereo not drawn) (Ac-Ser-Tyr-Gly-NH2; configuration not given here) | > 100 µM | > 100 µM | > 100 µM | > 100 µM | > 100 µM | > 100 µM | > 100 µM | > 100 µM | > 100 µM | > 100 µM |  |  |  |  |
| OC1(c2ccc3ccccc3c2)c2c(c3ccccc3c3ccccc23)C2=NCCN21 (centres undefined) | > 28.4 µM | > 30.3 µM | 23.3 µM | > 63.5 µM | > 69.3 µM | 44 µM | 4.29 µM | 5.1 µM | 47.2 µM | 38.1 µM |  |  |  |  |
| CCCN(CCC)C(=O)c1c(Cl)c2cccnc2n2c(C)cnc12 | > 100 µM | > 100 µM | > 100 µM | > 100 µM | 98.6 µM | > 100 µM | > 100 µM | 85.3 µM | > 100 µM | > 100 µM |  |  |  |  |
| CCOC(=O)Oc1ccc2c(c1)c(=O)c1c(NCCCN(CC)CC)ccc3nnn2c31 | > 53 µM | 19.5 µM | 12.5 µM | 29.8 µM | 20.9 µM | 23.2 µM | 25.4 µM | 18.3 µM | 29.3 µM | 29.7 µM |  |  |  |  |
| CC(C)OP(=O)(OC(C)C)C(Nc1cccc(C(F)(F)F)c1)c1ccccc1 (centres undefined) | > 100 µM | > 100 µM | > 100 µM | > 100 µM | > 100 µM | > 100 µM | > 100 µM | > 100 µM | > 100 µM | > 100 µM |  |  |  |  |
| C=C(CC)C[C@@H]1C[C@]2(C(=O)OC)c3[nH]c4ccccc4c3CCN2C1=O | > 100 µM | > 100 µM | 34 µM | 41.9 µM | 42.8 µM | 41.1 µM | 36.5 µM | 43.7 µM | 49.7 µM | 72.5 µM |  |  |  |  |
| O=C1Nc2ccc(Br)cc2/C1=C/C(=O)c1ccccc1 | > 24.9 µM | 5.31 µM | 61.2 µM | 29 µM | 26.9 µM | 34.6 µM | 28.1 µM | 42 µM | 23.8 µM | 16.8 µM |  |  |  |  |
| CC(=O)Oc1cc(S(=O)(=O)Nc2n[nH]c(N)n2)c(S)cc1Cl | > 100 µM | > 100 µM | > 100 µM | > 100 µM | > 100 µM | > 100 µM | > 100 µM | > 100 µM | > 100 µM | > 100 µM |  |  |  |  |
| CC1(C)CC2(C)ON=C(c3ccccc3)N2c2ccccc2N1 (centres undefined) | > 100 µM | > 100 µM | 37 µM | 58.3 µM | 42.1 µM | 54.4 µM | 40.6 µM | 39.8 µM | 82.1 µM | 55.3 µM |  |  |  |  |
| N#CCN(Cc1ccccc1)[C@@H]1CCC[C@]1(O)C#Cc1ccc2c(c1)OCO2 | 40.9 µM | 32.2 µM | 30.8 µM | 37.9 µM | 50.7 µM | 35.1 µM | 32 µM | 42.1 µM | 42 µM | 34.3 µM |  |  |  |  |
| Cc1ccc(N2C(=O)C(=O)N(/N=C3\C(=O)Nc4ccccc43)C2=S)cc1 | > 100 µM | > 100 µM | > 100 µM | > 100 µM | > 100 µM | > 100 µM | > 100 µM | > 100 µM | > 100 µM | > 100 µM |  |  |  |  |
| Cc1ccc(-n2cc(-c3ccc(Cl)cc3)c(C#N)c2N)cc1 | > 100 µM | 30.5 µM | 31.9 µM | 27.9 µM | 25.4 µM | 35.6 µM | 28.7 µM | 32.7 µM | 31.5 µM | 33.1 µM |  |  |  |  |
| Cc1nc(Nc2nc3ccccc3[nH]2)[nH]c(=O)c1CCO | > 100 µM | > 100 µM | > 100 µM | > 100 µM | > 100 µM | > 100 µM | 98.9 µM | > 100 µM | > 100 µM | > 71.5 µM |  |  |  |  |
| O=C1c2c(ccc3c2CCCC3)CC1Cc1ccc2c(c1)CCCC2 (centres undefined) | 67.6 µM | > 100 µM | > 100 µM | 71 µM | > 100 µM | > 100 µM | > 100 µM | > 100 µM | > 100 µM | > 100 µM |  |  |  |  |
| C(=N/NC1=NCCN1)/c1c2ccccc2c(/C=N\NC2=NCCN2)c2ccccc12 | 0.759 µM and 4.29 µM | 1.32 µM and 2.98 µM and 3.42 µM | 0.611 µM and 1.75 µM and 0.597 µM | 0.393 µM and 0.902 µM and 0.801 µM | 0.348 µM and 0.422 µM | 0.273 µM and 1.8 µM and 2.3 µM | 0.568 µM and 0.697 µM | 0.271 µM and 0.477 µM | 0.647 µM and 1.4 µM and 1.03 µM | 0.259 µM and 0.564 µM and 0.477 µM | 0.116 µM | 0.0776 µM | 0.25 µM | 0.155 µM |
| C=CC[C@H]1[C@H](O[Si](C)(C)C(C)(C)C)C=CC(=O)[C@@H]1CC(=O)OCC | 41.7 µM | 31.6 µM | 34.5 µM | 17.9 µM | 21.3 µM | 26.6 µM | 25.3 µM | 26.4 µM | 33.6 µM | 25.9 µM |  |  |  |  |
